Bounds are passed on as bounds.

This assay has as its target T1, human GlyT1c transporter (Homo sapiens, UniProt P48067).
T1 construct: expressed in transfected cells; host or cells: CHO cells (recombinant; membranes)
T1 sequence (P48067 1-706): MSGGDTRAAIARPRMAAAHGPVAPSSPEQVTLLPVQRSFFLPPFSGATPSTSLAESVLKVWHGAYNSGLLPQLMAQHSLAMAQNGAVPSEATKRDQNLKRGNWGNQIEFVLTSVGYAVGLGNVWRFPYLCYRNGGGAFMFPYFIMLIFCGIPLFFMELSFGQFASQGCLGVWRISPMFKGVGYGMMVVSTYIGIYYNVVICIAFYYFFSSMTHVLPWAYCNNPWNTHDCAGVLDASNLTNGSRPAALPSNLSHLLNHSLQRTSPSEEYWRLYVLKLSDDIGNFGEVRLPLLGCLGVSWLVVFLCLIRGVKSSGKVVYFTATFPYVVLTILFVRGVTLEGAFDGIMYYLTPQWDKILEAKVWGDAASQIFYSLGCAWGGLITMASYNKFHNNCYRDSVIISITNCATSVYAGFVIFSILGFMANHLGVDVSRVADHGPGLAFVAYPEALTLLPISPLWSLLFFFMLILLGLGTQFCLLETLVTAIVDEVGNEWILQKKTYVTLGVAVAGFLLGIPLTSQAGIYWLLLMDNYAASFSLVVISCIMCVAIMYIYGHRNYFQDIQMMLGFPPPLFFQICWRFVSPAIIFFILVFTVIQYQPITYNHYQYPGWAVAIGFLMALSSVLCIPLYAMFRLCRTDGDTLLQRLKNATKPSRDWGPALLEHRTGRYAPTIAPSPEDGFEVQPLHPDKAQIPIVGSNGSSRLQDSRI
In words: Radioligand binding assay using recombinant CHO cell membranes expressing human GlyT1. Conditions: read-out: radioligand binding Kiapp. Here is the method: 2. Radioligand Binding Assays Using Recombinant CHO Cell Membranes Expressing Human GlyT1:
Radioligand binding to human GlyT1c transporter-expressing membranes was determined as described in Mezler et al., Molecular Pharmacology 74:1705-1715, 2008.

On to `Cn1cnc(S(=O)(=O)NCCOc2ccc3c(c2)C(Cc2ccccc2)NC3=O)c1` (stereo not drawn) [Example 1, N-[2-(3-benzyl-1-oxo-isoindolin-5-yl)oxyethyl]-1-methyl-1H-imidazole-4-sulfonamide], for which the Ki is < 1000 nM.

Consider `Cn1cnc(S(=O)(=O)NCc2ccc3c(c2)C(Cc2ccccc2)NC3=O)c1` (stereo not drawn) [Example 2, N-[(3-Benzyl-1-oxo-isoindolin-5-yl)methyl]-1-methyl-1H-imidazole-4-sulfonamide], for which the Ki is < 1000 nM.

In the case of `CC(C)(C)OC(=O)NCCOc1ccc2c(c1)C(Cc1ccccc1)NC2=O` (stereo not drawn) [Example 3, [2-(3-Benzyl-1-oxo-2,3-dihydro-1H-isoindol-5-yloxy)-ethyl]-carbamic acid tert-butyl ester], the Ki was > 10000 nM.

Take `Cn1cc(S(=O)(=O)NCCOc2ccc3c(c2)C(Cc2ccccc2)NC3=O)cn1` (stereo not drawn) [Example 6, N-[2-(3-Benzyl-1-oxo-isoindolin-5-yl)oxyethyl]-1-methyl-1H-pyrazole-4-sulfonamide]: the Ki is < 10000 nM.

Turning to `Cn1cnc(S(=O)(=O)NCCOc2ccc3c(c2)C(C)(Cc2ccccc2)NC3=O)c1` (stereo not drawn) [Example 8, N-[2-(3-Benzyl-3-methyl-1-oxo-isoindolin-5-yl)oxyethyl]-1-methyl-1H-imidazole-4-sulfonamide], the Ki is < 10000 nM.

With `Cn1cc(S(=O)(=O)NCCOc2ccc3c(c2)C(C)(Cc2ccccc2)NC3=O)cn1` (stereo not drawn) [Example 9, N-[2-(3-Benzyl-3-methyl-1-oxo-isoindolin-5-yl)oxyethyl]-1-methyl-1H-pyrazole-4-sulfonamide], the Ki was < 10000 nM.

`Cn1cc(S(=O)(=O)NCCOc2ccc3c(c2)C(C)(Cc2ccccc2)NC3)cn1` (stereo not drawn) [Example 10, N-[2-(3-Benzyl-3-methyl-isoindolin-5-yl)oxyethyl]-1-methyl-1H-pyrazole-4-sulfonamide]: the Ki is < 100 nM.

As to `Cn1cnc(S(=O)(=O)NCCOc2ccc3c(c2)C(C)(Cc2ccccc2)NC3)c1` (stereo not drawn) [Example 11, N-[2-(3-Benzyl-3-methyl-isoindolin-5-yl)oxyethyl]-1-methyl-imidazole-4-sulfonamide], the Ki is < 100 nM.

With `Cn1cc(S(=O)(=O)NCCOc2ccc3c(c2)C(Cc2ccccc2)N(C(=O)C(F)(F)F)C3)cn1` (stereo not drawn) [Example 12], the Ki is < 1000 nM.

In the case of `CN1Cc2ccc(OCCNS(=O)(=O)c3cnn(C)c3)cc2C1Cc1ccccc1` (stereo not drawn) [Example 13, N-[2-(3-Benzyl-2-methyl-isoindolin-5-yl)oxyethyl]-1-methyl-1H-pyrazole-4-sulfonamide; 2,2,2-trifluoroacetic acid], the Ki is < 10 nM.

With `CN1Cc2ccc(OCCNS(=O)(=O)c3cn(C)cn3)cc2C1Cc1ccccc1` (stereo not drawn) [Example 14, N-[2-(3-Benzyl-2-methyl-isoindolin-5-yl)oxyethyl]-1-methyl-1H-imidazole-4-sulfonamide; 2,2,2-trifluoroacetic acid], the Ki is < 100 nM.

`Cn1cc(S(=O)(=O)NCCOc2ccc3c(c2)C(Cc2ccccc2)N(CC(F)(F)F)C3)cn1` (stereo not drawn) [Example 15, N-[2-[3-Benzyl-2-(2,2,2-trifluoroethyl)isoindolin-5-yl]oxyethyl]-1-methyl-1H-pyrazole-4-sulfonamide; 2,2,2-trifluoroacetic acid]: the Ki was < 1000 nM.

For `Cn1cc(S(=O)(=O)NCCOc2ccc3c(c2)C(Cc2ccccc2)N(C2COC2)C3)cn1` (stereo not drawn) [Example 16, N-[2-[3-Benzyl-2-(oxetan-3-yl)isoindolin-5-yl]oxyethyl]-1-methyl-1H-pyrazole-4-sulfonamide; 2,2,2-trifluoroacetic acid], the Ki was < 100 nM.

`CC1(Cc2ccccc2)NC(=O)c2ccc(OCCNS(=O)(=O)CC3CC3)cc21` (stereo not drawn) [Example 17, N-[2-(3-Benzyl-3-methyl-1-oxo-isoindolin-5-yl)oxyethyl]-1-cyclopropyl-methanesulfonamide]: the Ki was < 10000 nM.

In the case of `CC1(Cc2ccccc2)NCc2ccc(OCCNS(=O)(=O)CC3CC3)cc21` (stereo not drawn) [Example 18, N-[2-(3-Benzyl-3-methyl-isoindolin-5-yl)oxyethyl]-1-cyclopropyl-methanesulfonamide; 2,2,2-trifluoroacetic acid], the Ki is < 1000 nM.

On to `Cn1cnc(S(=O)(=O)NCCOc2cc3c(cc2F)C(=O)NC3Cc2ccccc2)c1` (stereo not drawn) [Example 19, N-[2-(3-Benzyl-6-fluoro-1-oxo-isoindolin-5-yl)oxyethyl]-1-methyl-1H-imidazole-4-sulfonamide], for which the Ki is < 1000 nM.

On to `CN1Cc2cc(F)c(OCCNS(=O)(=O)CC3CC3)cc2C1Cc1ccccc1` (stereo not drawn) [Example 20, N-(2-(3-Benzyl-6-fluoro-2-methylisoindolin-5-yloxy)ethyl)-1-cyclopropyl-methanesulfonamide], for which the Ki was < 1000 nM.

`Cn1cnc(S(=O)(=O)NCCOc2cc3c(cc2F)CNC3Cc2ccccc2)c1` (stereo not drawn) [Example 21, 1-Methyl-1H-imidazole-4-sulfonic acid [2-(3-benzyl-6-fluoro-2,3-dihydro-1H-isoindol-5-yloxy)-ethyl]-amide]: the Ki is < 100 nM.

Regarding `O=C1NC(Cc2ccccc2)c2cc(OCCNS(=O)(=O)CC3CC3)c(F)cc21` (stereo not drawn) [Example 22, N-[2-(3-Benzyl-6-fluoro-1-oxo-2,3-dihydro-1H-isoindol-5-yloxy)-ethyl]-C-cyclopropyl-methanesulfonamide], the Ki is < 10000 nM.

Take `O=S(=O)(CC1CC1)NCCOc1cc2c(cc1F)CNC2Cc1ccccc1` (stereo not drawn) [Example 23, N-[2-(3-Benzyl-6-fluoro-2,3-dihydro-1H-isoindol-5-yloxy)-ethyl]-C-cyclopropyl-methanesulfonamide]: the Ki is < 1000 nM.

As for `CCS(=O)(=O)NCCOc1cc2c(cc1F)C(=O)NC2Cc1ccccc1` (stereo not drawn) [Example 24, Ethanesulfonic acid [2-(3-benzyl-6-fluoro-1-oxo-2,3-dihydro-1H-isoindol-5-yloxy)-ethyl]-amide], the Ki is < 10000 nM.

As to `CCS(=O)(=O)NCCOc1cc2c(cc1F)CNC2Cc1ccccc1` (stereo not drawn) [Example 25, Ethanesulfonic acid [2-(3-benzyl-6-fluoro-2,3-dihydro-1H-isoindol-5-yloxy)-ethyl]-amide], the Ki was < 10000 nM.

As to `O=C1NC(Cc2ccccc2)c2cc(CNS(=O)(=O)CC3CC3)ccc21` (stereo not drawn) [Example 26, N-(3-Benzyl-1-oxo-2,3-dihydro-1H-isoindol-5-ylmethyl)-C-cyclopropyl-methanesulfonamide], the Ki is < 10000 nM.

Turning to `CCCS(=O)(=O)NCc1ccc2c(c1)C(Cc1ccccc1)NC2=O` (stereo not drawn) [Example 28, Propane-1-sulfonic acid (3-benzyl-1-oxo-2,3-dihydro-1H-isoindol-5-ylmethyl)-amide], the Ki is < 10000 nM.

As for `O=S(=O)(CC1CC1)NCc1ccc2c(c1)C(Cc1ccccc1)NC2` (stereo not drawn) [Example 29, N-(3-Benzyl-2,3-dihydro-1H-isoindol-5-ylmethyl)-C-cyclopropyl-methanesulfonamide], the Ki was < 10000 nM.

On to `CCS(=O)(=O)NCc1ccc2c(c1)C(Cc1ccccc1)NC2` (stereo not drawn) [Example 30, Ethanesulfonic acid (3-benzyl-2,3-dihydro-1H-isoindol-5-ylmethyl)-amide], for which the Ki was < 100000 nM.

Take `CCCS(=O)(=O)NCc1ccc2c(c1)C(Cc1ccccc1)NC2` (stereo not drawn) [Example 31, Propane-1-sulfonic acid (3-benzyl-2,3-dihydro-1H-isoindol-5-ylmethyl)-amide]: the Ki is < 10000 nM.

The record behind these values is patent publication US9365512B2, “Isoindoline derivatives, pharmaceutical compositions containing them, and their use in therapy” (AbbVie Deutschland GmbH & Co. KG, priority 2012, dated 2016).
